In assay [1] the target is T1, m2 mAChR-G∀i1∃1(2-GDP complex (Sus scrofa, UniProt P06199)).
T1 construct: made in house
Briefly: 3H-NMS binding assay by the method of Rinken and Haga.

Another assay deals with T2, m2 mAChR (Sus scrofa, UniProt P06199).
T2 construct: made in house
T2 sequence (P06199 1-466): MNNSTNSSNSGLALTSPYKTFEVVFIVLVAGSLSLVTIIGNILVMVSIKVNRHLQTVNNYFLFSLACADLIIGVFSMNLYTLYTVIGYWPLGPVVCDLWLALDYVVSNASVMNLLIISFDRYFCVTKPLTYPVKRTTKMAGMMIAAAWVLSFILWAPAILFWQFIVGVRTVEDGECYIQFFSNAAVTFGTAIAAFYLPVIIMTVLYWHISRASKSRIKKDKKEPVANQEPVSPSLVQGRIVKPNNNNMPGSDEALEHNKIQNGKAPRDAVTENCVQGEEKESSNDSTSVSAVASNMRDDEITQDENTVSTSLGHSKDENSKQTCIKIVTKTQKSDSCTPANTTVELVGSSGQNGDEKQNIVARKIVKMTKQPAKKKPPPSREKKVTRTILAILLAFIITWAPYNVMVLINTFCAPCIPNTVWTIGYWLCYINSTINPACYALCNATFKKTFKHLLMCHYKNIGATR
Described as above. Particulars: m2 mAChR alone, without accessory protein; read-out: apparent Kd.

T1 sequence (P63096 whole entry partner, one chain of several): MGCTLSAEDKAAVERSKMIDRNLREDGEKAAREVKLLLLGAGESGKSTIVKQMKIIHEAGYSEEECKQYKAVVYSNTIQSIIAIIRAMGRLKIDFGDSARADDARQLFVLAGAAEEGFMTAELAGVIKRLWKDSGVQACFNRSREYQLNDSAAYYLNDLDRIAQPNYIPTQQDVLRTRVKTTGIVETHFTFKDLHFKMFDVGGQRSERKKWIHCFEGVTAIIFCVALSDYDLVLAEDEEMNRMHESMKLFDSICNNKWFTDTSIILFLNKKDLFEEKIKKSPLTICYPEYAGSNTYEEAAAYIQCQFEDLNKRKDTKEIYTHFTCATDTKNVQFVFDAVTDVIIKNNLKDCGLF
T1 sequence (P62873 whole entry partner, one chain of several): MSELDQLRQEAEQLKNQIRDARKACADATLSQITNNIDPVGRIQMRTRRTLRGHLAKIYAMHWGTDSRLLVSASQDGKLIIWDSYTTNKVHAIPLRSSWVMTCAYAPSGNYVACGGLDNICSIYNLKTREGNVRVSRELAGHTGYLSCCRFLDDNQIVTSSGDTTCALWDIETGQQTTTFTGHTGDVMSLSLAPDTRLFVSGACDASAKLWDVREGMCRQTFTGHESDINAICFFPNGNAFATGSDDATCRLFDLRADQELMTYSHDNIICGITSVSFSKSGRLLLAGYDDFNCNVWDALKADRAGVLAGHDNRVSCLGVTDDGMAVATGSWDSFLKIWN
T1 sequence (P59768 2-68 partner limits assumed, one chain of several): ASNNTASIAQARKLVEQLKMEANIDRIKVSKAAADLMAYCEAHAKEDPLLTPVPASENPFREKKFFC

With `C[N+]1(C)[C@@H]2C[C@@H](OC(=O)[C@H](CO)c3ccccc3)C[C@H]1[C@@H]1O[C@@H]12` [3H-NMS, N-methylscapolamine], the Kd turned out to be 0.432 µM in assay [1] (m2 mAChR with G protein heterotrimer-GDP as accessory protein) and 0.00017 µM at m2 mAChR. Further, the “enhancement of affinity of m2 mAChR in presence of accessory protein complex” value in assay [1] (with vs without G∀i1∃1(2-GDP complex)) is 5 fold.

Source of the values: patent publication US20020164617A1, “Affinity selection-based screening of hydrophobic proteins” (NeoGenesis Pharmaceuticals, Inc., priority 2000, published 2002).
